The source of these data is paper PMC6396881 (European journal of medicinal chemistry, 2018).

The target of one data set is DYRK1A (Homo sapiens, UniProt Q13627). Briefly: KINOMEscan qPCR-based binding assay. Particulars: for fold improvement in DYRK1A binding (Kd) as compared to hit 3–1: ratio of Kd. In general terms: Real-time PCR tracks product formation cycle by cycle.
Data set [1] has as its system human β-cell. Description: Human β-cell proliferation assay. It is filed as cell-based. The conditions noted are these: 5 μM, 96 hours, KI67 labeling of insulin-labeled cells, compared to vehicle-treated cells.
Data set [2] concerns human β-cell. Particulars: cited from earlier work.

As for `CC(NC1=NN=C(c2ccc3[nH]c(=O)[nH]c3c2)CS1)c1ccccc1` (centres unmarked) [3–16, N-(1-phenylethyl)-5-(benzo[d]imidazol-2(3H)-one)-6H-1,3,4-thiadiazin-2-amine], the “fold improvement in DYRK1A binding (Kd) as compared to hit 3–1” value on DYRK1A amounted to 4 fold.

Regarding `O=c1[nH]c2ccc(C3=NN=C(NCc4ccc(F)cc4)SC3)cc2[nH]1` [Compound 3–5, N-(4-fluorobenzyl)-5-(benzo[d]imidazol-2(3H)-one)-6H-1,3,4-thiadiazin-2-amine], in the data set with human β-cell [1], the “human β-cell proliferation” value is “induced human β-cell proliferation”. For `COc1ccc2c(c1)[nH]c1c(C)nccc12` [Harmine, reference compound], the “% DMSO Ctrl, DYRK1A” value at DYRK1A was less than 1%. In addition, in the data set with human β-cell [2], the “fold induction in human pancreatic β-cell proliferation” value is recorded as 10–15 fold. On to `O=c1[nH]c2ccc(C3=NN=C(NCc4cccnc4)SC3)cc2[nH]1` [3–13, N-(pyridine-3yl)methyl-5-(benzo[d]imidazol-2(3H)-one)-6H-1,3,4-thiadiazin-2-amine], for which the “fold improvement in DYRK1A binding (Kd) as compared to hit 3–1” value at DYRK1A is recorded as 5 fold.
